Our source for the EC50 and IC50 values is ChEMBL document CHEMBL5505952, “Targeting SARS-CoV-2 entry processes: The promising potential and future of host-targeted small-molecule inhibitors” (Eur J Med Chem, 2024).

Assay [1] deals with SARS-CoV-2. It counts as functional, organism-based. As to conditions: Severe acute respiratory syndrome coronavirus 2, Vero C1008.
Assay [2] deals with SARS-CoV-2. Kind of assay: microbe, parasite or virus in culture. To be noted: Severe acute respiratory syndrome coronavirus 2, Huh-7.
For assay [3], the system named is SARS-CoV-2. Put plainly: microbe, parasite or virus in culture. To be noted: Severe acute respiratory syndrome coronavirus 2, B.1, VeroE6/TMPRSS2, 48 h.
Assay [4] relates to SARS-CoV-2. Kind of assay: microbe, parasite or virus in culture. To be noted: Severe acute respiratory syndrome coronavirus 2, A549-ACE2.
Another assay has as its target Procathepsin L (Homo sapiens, UniProt P07711). Kind of assay: Inhibition of human Cathepsin L using Cbz-Phe-Arg-AMC as substrate measured for 10 mins by fluorescence based analysis.
The test system of another assay is Ebolavirus. Put plainly: Antiviral activity against Ebola virus infected in human HeLa cells assessed as reduction in viral cytopathic effect. It counts as functional, organism-based. To be noted: Orthoebolavirus. Background: Cytopathic effects are the visible damage that an infection or toxin causes in cultured cells.
The test system of a further assay is Dengue virus. The class given is functional, organism-based. As to conditions: Huh-7, 48 h.

Procathepsin L, sequence (P07711 whole entry): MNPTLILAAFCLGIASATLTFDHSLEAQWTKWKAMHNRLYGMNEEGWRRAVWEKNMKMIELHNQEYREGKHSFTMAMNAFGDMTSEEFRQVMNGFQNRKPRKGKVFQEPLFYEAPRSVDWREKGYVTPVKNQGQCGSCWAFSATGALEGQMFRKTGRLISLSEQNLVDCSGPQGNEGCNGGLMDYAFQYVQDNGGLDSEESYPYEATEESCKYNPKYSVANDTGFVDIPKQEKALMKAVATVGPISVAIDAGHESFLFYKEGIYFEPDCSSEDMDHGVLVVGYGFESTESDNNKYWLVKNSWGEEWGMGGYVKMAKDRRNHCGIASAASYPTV

Take `CC(CN(C)C)CN1c2ccccc2Sc2ccccc21` (configuration not stated) [METHYLPROMAZINE]: the EC50 (commonly the concentration that produces a half-maximal response) in the assay on SARS-CoV-2 [1] was 2.42 µM.
As to `CCCCCCCCCC(=O)N[C@@H](Cc1c[nH]c2ccccc12)C(=O)N[C@H](CC(N)=O)C(=O)N[C@@H](CC(=O)O)C(=O)N[C@@H]1C(=O)NCC(=O)N[C@@H](CCCN)C(=O)N[C@@H](CC(=O)O)C(=O)N[C@H](C)C(=O)N[C@@H](CC(=O)O)C(=O)NCC(=O)N[C@H](CO)C(=O)N[C@@H]([C@H](C)CC(=O)O)C(=O)N[C@@H](CC(=O)c2ccccc2N)C(=O)O[C@@H]1C`, the values for the EC50 in the assay with SARS-CoV-2 [2], with SARS-CoV-2 [3] and in the assay with SARS-CoV-2 [4] were 207 µM, 226 µM and 98.8 µM, respectively. Moreover, at Procathepsin L, the IC50 (usually the point on the concentration scale where inhibition reaches its midpoint) is 7.87 µM.
For the compound `N#Cc1ccc(-c2cnc3[nH]cc(NC(=O)c4cccnc4)c3c2)cc1`, the values for the EC50 in the assay with Ebolavirus and in the assay with Dengue virus were > 10 µM and 8 µM, respectively.
